Data reported in paper PMC6934184, “Selective DNA-PKcs inhibition extends the therapeutic index of localized radiotherapy and chemotherapy” (The Journal of Clinical Investigation, 2019).

Biological target: T1, MARK4 (Homo sapiens, UniProt Q96L34)
T1 construct: purchased Thermo Fisher Scientific (Life Technologies) SelectScreen
Assay: SelectScreen Z'LYTE
Assay type: biochemical
Method in brief: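 Percent values come from Thermo SelectScreen profiling of NU5455, combining activity and binding assays. CSF1R was run in Z'LYTE format at Km app ATP, and CAMK1 in Adapta format with ATP listed at 10.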

T1 sequence (Q96L34 whole entry): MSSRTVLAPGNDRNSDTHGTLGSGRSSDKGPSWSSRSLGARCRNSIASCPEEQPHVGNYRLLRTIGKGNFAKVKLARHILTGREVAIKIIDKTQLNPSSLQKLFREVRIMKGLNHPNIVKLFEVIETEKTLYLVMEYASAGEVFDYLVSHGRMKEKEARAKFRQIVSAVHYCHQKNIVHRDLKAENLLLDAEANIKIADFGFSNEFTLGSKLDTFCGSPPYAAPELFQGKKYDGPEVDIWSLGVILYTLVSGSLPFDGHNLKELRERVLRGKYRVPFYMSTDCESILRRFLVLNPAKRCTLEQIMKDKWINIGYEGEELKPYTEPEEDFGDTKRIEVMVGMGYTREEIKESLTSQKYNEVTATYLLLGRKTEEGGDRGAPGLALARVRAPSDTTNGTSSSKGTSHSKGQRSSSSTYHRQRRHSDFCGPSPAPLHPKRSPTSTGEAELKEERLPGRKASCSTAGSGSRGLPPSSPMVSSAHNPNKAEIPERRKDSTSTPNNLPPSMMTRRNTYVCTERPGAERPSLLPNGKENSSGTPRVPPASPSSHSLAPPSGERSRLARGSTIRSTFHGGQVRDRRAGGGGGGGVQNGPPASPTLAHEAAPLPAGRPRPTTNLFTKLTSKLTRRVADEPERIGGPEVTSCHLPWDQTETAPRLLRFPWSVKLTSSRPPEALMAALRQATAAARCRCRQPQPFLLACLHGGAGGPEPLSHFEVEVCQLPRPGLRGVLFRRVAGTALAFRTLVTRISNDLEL

## CN(C(=O)CN1CCOCC1)c1ccc2sc3c(-c4cccc5c(=O)cc(N6CC7CCC(C6)O7)oc45)cccc3c2c1 [NU5455]
  inhibition at 1 µM: -2%
